Measured values reported in patent US20240302368A1, “MIGRATION OF HUMAN PERIPHERAL LEUKOCYTES IN RESPONSE TO CHEMOTACTIC FACTORS DURING PREGNACY” (The Governors of the University of Alberta, priority 2021, published 2024).
“Also recorded” adds a separate entry of the source.

What was measured:
CD-1 mice [1] = assay: Neutrophil (Ly-6G+) invasion of mouse lower uterus and fetal brain, immunohistochemistry; type: in vivo; settings: IL-1β on GD 16 without or with rytvela; compared to sham control; p<0.05
Excerpt: (§1) CD-1 mice were ordered from Charles-River Laboratories Canada (Montreal, QC, Canada) and housed by Health Sciences Laboratory Animal Services at the University of Alberta. (Edmonton, AB, Canada) on a standard diet. Six groups of mice were euthanized at GD15, 17, 18, 18.5, 19 during spontaneous labor, and post-partum (PP)-1 Four groups of mice were anesthetized under isoflurane and a 1.5 cm-tall median incision was made in the lower abdominal wall. The lower segment of the right uterine hom was exposed, IL-1β (3 μg) or vehicle (0.9% saline) was injected between two fetal membranes, and the abdominal muscle layer and skin were sutured. Rytvela (1 mgikg, Elim Biopharmaceuticals, Hayward, CA) or vehicle (0.9% saline) was injected i.p. in a total volume of 100 μL saline, the first dose of which was given 30 min prior to administration of stimuli and three doses every 12 h thereafter. Animals were monitored for the onset of preterm labor (PTL) using infrared video camera recording commencing at GD16.5. Mice were euthanized at the onset of PTL or at GD17 From all ten groups of mice, lower uteri, upper uteri, placentas, fetal membranes and cervices were collected and normalized to wet tissue weight (100 mg/mL) in Dulbecco's Modified Eagle's Medium (DMEM) F-12 (Thermo Fisher Scientific, MA, USA). These tissues were homogenized by TissueLyser II (QIAGEN, Hilden, Germany) according to the manufacturer's protocol and centrifuged at 4° C., 13,000×g for 10 min to extract total protein. Maternal whole blood was collected via cardiac puncture. Whole fetuses (n=2 per dam) were also collected.
Six cryosections (7 μm) per treatment group were prepared from snap-frozen lower uteri and fetal heads (n=2 per dam) and stained for neutrophils using a goat anti-mouse Ly-6G antibody (Invitrogen, Carlsbad, CA, USA) and a rat anti-goat secondary antibody tagged with an Alexa Fluor 488 fluorescence marker (Invitrogen). Cells were counterstained using Hoechst 33342 (Thermo Fisher Scientific) and tissue homology was confirmed with a hematoxylin and eosin stain (Thermo Fisher Scientific). Four different fields (20× optical zoom) were counted per section by two observers blinded to the specimen details. Areas containing blood vessels and leukocytes within blood vessels were excluded. The arithmetic mean was calculated for each sample between the two observers. In the fetus, we focused on leukocyte invasion of the brain because of the evidence associating maternal inflammation and adverse outcomes to the fetal brain (15, 28).

[2] = tested on: peripheral mouse leukocytes; assay: Cytokine mRNA abundance in peripheral leukocytes of pregnant mice, RT-qPCR; type: in vivo; settings: GD 17 after IL-1β on GD 16, without or with rytvela; p<0.05
Excerpt: (§2) CD-1 mice were ordered from Charles-River Laboratories Canada (Montreal, QC, Canada) and housed by Health Sciences Laboratory Animal Services at the University of Alberta. (Edmonton, AB, Canada) on a standard diet. Six groups of mice were euthanized at GD15, 17, 18, 18.5, 19 during spontaneous labor, and post-partum (PP)-1 Four groups of mice were anesthetized under isoflurane and a 1.5 cm-tall median incision was made in the lower abdominal wall. The lower segment of the right uterine hom was exposed, IL-1β (3 μg) or vehicle (0.9% saline) was injected between two fetal membranes, and the abdominal muscle layer and skin were sutured. […] Animals were monitored for the onset of preterm labor (PTL) using infrared video camera recording commencing at GD16.5. […]
Total RNA was extracted from mouse whole blood using the RNeasy protect animal blood system (Qiagen, Hilden, Germany) according to the manufacturer's protocol. RNA concentration were determined using a NanoDrop 1000 spectrophotometer to measure the optical density (OD) photometrically at 280 nm and 260 nm (an OD260 nm/280 nm ratio of >1.8 was considered protein-free RNA). cDNA was synthesized from 500 ng RNA using qScript cDNA SuperMix (Quanta Biosciences, MA, USA) according to the manufacturer's protocol. […]

[3] = mouse; cited from earlier work
IL-1 receptor (IL-1R) = target: T1, IL-1 receptor (IL-1R) (Mus musculus, UniProt P13504); settings: PTB induced by IL-1β, LTA or LPS; cited from earlier work
T1 construct: host or cells: pregnant mice, in vivo
T1 sequence (P13504 20-576): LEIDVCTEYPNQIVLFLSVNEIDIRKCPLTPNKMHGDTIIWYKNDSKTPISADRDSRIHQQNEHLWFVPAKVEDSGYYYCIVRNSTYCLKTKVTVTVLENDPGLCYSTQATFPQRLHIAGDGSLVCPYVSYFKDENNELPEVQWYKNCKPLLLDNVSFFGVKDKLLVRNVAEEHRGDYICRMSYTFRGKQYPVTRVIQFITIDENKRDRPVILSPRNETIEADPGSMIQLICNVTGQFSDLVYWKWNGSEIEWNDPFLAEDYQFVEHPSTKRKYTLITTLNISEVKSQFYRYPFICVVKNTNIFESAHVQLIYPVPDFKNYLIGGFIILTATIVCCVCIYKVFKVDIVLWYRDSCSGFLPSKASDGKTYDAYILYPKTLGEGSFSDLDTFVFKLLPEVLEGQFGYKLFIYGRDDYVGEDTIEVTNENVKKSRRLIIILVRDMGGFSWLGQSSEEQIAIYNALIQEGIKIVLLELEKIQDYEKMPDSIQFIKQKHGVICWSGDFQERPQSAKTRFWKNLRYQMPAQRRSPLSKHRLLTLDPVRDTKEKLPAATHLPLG

CD-1 mice [4] = assay: IL-1β-induced preterm birth (PTB) and fetal death in pregnant mice; type: in vivo, mouse; settings: for fetal death: IL-1β on GD 16 without or with rytvela, fetuses at GD 17
Excerpt: as §1

mouse leukocytes = assay: Mouse leukocyte migration assay (mLMA) with GD 18.5 lower uterus chemoattractant; type: in vivo; settings: GD 17 after IL-1β on GD 16, without or with rytvela, p<0.05
Excerpt: (§3) CD-1 mice were ordered from Charles-River Laboratories Canada (Montreal, QC, Canada) and housed by Health Sciences Laboratory Animal Services at the University of Alberta. (Edmonton, AB, Canada) on a standard diet. Six groups of mice were euthanized at GD15, 17, 18, 18.5, 19 during spontaneous labor, and post-partum (PP)-1 Four groups of mice were anesthetized under isoflurane and a 1.5 cm-tall median incision was made in the lower abdominal wall. The lower segment of the right uterine hom was exposed, IL-1β (3 μg) or vehicle (0.9% saline) was injected between two fetal membranes, and the abdominal muscle layer and skin were sutured. Rytvela (1 mgikg, Elim Biopharmaceuticals, Hayward, CA) or vehicle (0.9% saline) was injected i.p. in a total volume of 100 μL saline, the first dose of which was given 30 min prior to administration of stimuli and three doses every 12 h thereafter. Animals were monitored for the onset of preterm labor (PTL) using infrared video camera recording commencing at GD16.5. […]
(§4) Total leukocytes were isolated from whole blood using HetaSep (Stemcell Technologies Canada Inc., BC. Canada) according to the manufacturer's protocol. […] Fluorescence in each well was measured using a Fluoroskan Ascent (Thermo Fisher Scientific), and the number of chemoattracted leukocytes was calculated using 4 parameter logistic regression.

IL-1 receptor = target: T2, IL-1 receptor (Mus musculus, UniProt P13504); settings: LPS-treated mice; cited from earlier work
T2 construct: host or cells: pregnant mice, in vivo
T2 sequence (P13504 20-576): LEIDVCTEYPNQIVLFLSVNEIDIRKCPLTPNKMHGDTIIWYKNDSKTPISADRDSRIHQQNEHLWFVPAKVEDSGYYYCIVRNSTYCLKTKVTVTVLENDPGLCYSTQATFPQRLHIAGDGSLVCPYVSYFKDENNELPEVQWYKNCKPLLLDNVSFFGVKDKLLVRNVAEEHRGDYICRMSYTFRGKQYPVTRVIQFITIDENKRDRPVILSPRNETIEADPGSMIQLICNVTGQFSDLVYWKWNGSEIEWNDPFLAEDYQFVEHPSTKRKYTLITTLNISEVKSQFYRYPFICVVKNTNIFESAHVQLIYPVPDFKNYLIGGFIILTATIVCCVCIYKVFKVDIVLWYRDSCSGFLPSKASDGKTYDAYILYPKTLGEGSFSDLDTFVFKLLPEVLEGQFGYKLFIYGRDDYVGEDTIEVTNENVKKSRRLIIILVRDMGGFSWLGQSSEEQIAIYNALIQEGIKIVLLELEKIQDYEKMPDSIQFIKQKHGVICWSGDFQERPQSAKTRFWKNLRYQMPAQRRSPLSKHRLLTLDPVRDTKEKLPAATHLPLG

hFM explants = hFM explants treated with IL-1β; conditioned medium tested in LMA; type: cell-based, human
Description: Leukocyte migration assay (LMA). The LMA was carried out with the Modified Boyden chemotaxis chambers (AP48; Neuro Probe, Gaithersburg, MD, USA) as we published (19). The chamber is divided into the upper and lower berths. Twenty-five microliters of fetal membrane extracts were placed in the lower chamber of each well. DMEM, as a negative control, was placed in the lower chamber. A polycarbonate membrane with 3 μm pores (Neuro Probe, Gaithersburg. MD, USA) was next placed over the lower chamber, followed by a rubber gasket. Then 100,000 isolated leukocytes from whole blood of pregnant women were placed in the upper chamber of each well. The chambers were incubated for 90 min at 37′C in a humidified air incubator containing 5% CO2. After incubation, migrated leukocytes were removed from the lower chamber and put into 5 mL BD Falcon™ polystyrene round bottom tubes (Thermo Fischer Scientific K.K., Yokohama, Japan). Three hundred microliters of OptiLyse (Beckman Coulter, Beckman Coulter, Inc., Brea, CA, USA) were added to lyse RBCs, and the sample was vortexed immediately for 1 sec. The tube was incubated for 15 min at room temperature (20-25° C.) while protected from light. […] 1×PBS was added to each tube. […] The lower chamber samples were then kept covered in a 4′C cold room until quantification using flow cytometry (BD FACS Verse, BD Biosciences, Tokyo, Japan). […]

mouse lower uterus [5] = assay: KC and MIP-2 protein in mouse lower uterus extracts, multiplex; type: in vivo; settings: IL-1β on GD 16, lower uterus at GD 17
Excerpt: as §2
Mouse lower uterus tissue was suspended in DMEM-F12 medium (Thermo Fisher Scientific Inc., Ottawa, ON, Canada) at 100 mg wet tissue weight/mL and homogenized by TissueLyser II (Qiagen, Hilden, Germany) according to the manufacturer's instructions. […] Keratinocyte chemoattractant (KC) and macrophage inflammatory protein (MIP)-2 levels were measured by Bio-Plex Multiplex Immunoassay kit (Bio-Rad Laboratories, Hercules, CA, USA) according to the manufacturer's instructions.

TL leukocytes = TL leukocytes incubated with hFM conditioned medium -/+ IL-1β; double conditioned medium as chemoattractant in LMA; type: cell-based, human; settings: TL leukocytes treated with IL-1β plus hFM explant conditioned medium; fresh TL leukocytes migrate
Description: Leukocyte migration assay (LMA). The LMA for FIGS. 6 and 7 was performed as described above with the exception that 200,000 leukocytes were placed into the upper chamber. The LMA for FIGS. 3, 5 and FIG. 10 was performed using non-commercial, 3D printed Boyden chambers that produced nearly identical results to our published work with commercial Boyden chambers with the exception that the cutoff for predicting delivery within 7 days was 4575 cells (see FIG. 10 for more information).
Leukocyte Incubation with hFM Conditioned Medium. Conditioned medium from hFM explants was prepared as described previously (23). TL leukocytes were incubated with this single conditioned medium for 1 h at 37° C. and gentle agitation using a stir bar to prevent clumping. The supernatant was isolated via density centrifugation and used as the chemoattractant in an LMA to assess the further contribution of the leukocytes to the conditioned medium. This is referred to as ‘double conditioned medium.’ The pelleted TL leukocytes were resuspended in RPMI, and their responsiveness to GCF was assessed using an LMA.

mouse lower uterus [6] = assay: Mouse lower uterine chemoattractant assessed by leukocyte migration assay (LMA); type: in vivo; settings: IL-1β on GD 16, chemoattractant on GD 17
Excerpt: as §3
as §4, with “regression. […]” for “regression.”

## rytvela
CD-1 mice [1]
  neutrophil density in fetal brain: blocked the increase in neutrophil density
  neutrophil density in lower (maternal) uterus: blocked the increase in neutrophil density
[2]
  leukocyte mRNA abundance of IL-1β, IL-6, TNF-α and CCL2: blocked
[3]
  transfer from mother to fetus: does not transfer from mother to fetus
IL-1 receptor (IL-1R)
  PTB: blocked
CD-1 mice [4]; FIG. 11A, n=5-7 per group
  PTB (in words): inhibited
CD-1 mice [4]
  fetal death: normal GD 17 fetuses
CD-1 mice [4]; listed as Rytvela
  fetal death: prevented fetal death
CD-1 mice [4]; rytvela co-administered with IL-1β (GD 16)
  PTB rate: 0%
Mouse leukocytes
  mouse leukocyte migration: blocked
IL-1 receptor
  neutrophil infiltration (invasion) of fetal membranes: blocked

B1: IL-1β: Interleukin (IL)-1β, mediator of infectious and sterile-inflammatory preterm birth; used to induce PTB in mice (protein, UniProt P10749 118-269, looked up)
Interleukin-1 beta: VPIRQLHYRLRDEQQKSLVLSDPYELKALHLNGQNINQQVIFSMSFVQGEPSNDKIPVALGLKGKNLYLSCVMKDGTPTLQLESVDPKQYPKKKMEKRFVFNKIEVKSKVEFESAEFPNWYISTSQAEHKPVFLGNNSGQDIIDFTMESVSS
CD-1 mice [1]
  neutrophil density in fetal brain: increased detection of Ly-6G+ neutrophils
  neutrophil density in lower (maternal) uterus: increased detection of Ly-6G+ neutrophils
CD-1 mice [4]; IL-1β administered on GD 16, PTB on GD 17
  PTB rate: 86%
CD-1 mice [4]
  fetal death: increased fetal death; also recorded: undergoing resorption
Mouse leukocytes
  mouse leukocyte migration: increased leukocyte migration
hFM explants; TNL and TL hFM explants -/+ IL-1β, TL leukocytes in LMA
  chemoattractant release from hFM explants: did not promote more chemoattractant release
hFM explants; hFM explants pretreated with IL-1β 6 h, TNL leukocytes incubated 1 h, TL chemoattractant
  TNL leukocyte sensitivity to migration after hFM explant conditioned medium: had no effect
Mouse lower uterus [5]
  KC protein in lower uterus: stimulated increases
  MIP-2 protein in lower uterus: stimulated increases
TL leukocytes
  leukocyte chemoattractant release: greater leukocyte chemoattractant release
Mouse lower uterus [6]
  lower uterine chemoattractant: did not stimulate an increase
